Experiments:
FAAH [1] = target: T1, FAAH (Rattus norvegicus, UniProt P97612); test: In vitro FAAH activity in rat brain homogenates/membranes; type: biochemical; conditions: for FAAH activity, percent of control, 10 nM / FAAH activity, percent of control, 100 nM: rat brain homogenates, 15 min pre-incubation
T1 sequence (P97612 1-579): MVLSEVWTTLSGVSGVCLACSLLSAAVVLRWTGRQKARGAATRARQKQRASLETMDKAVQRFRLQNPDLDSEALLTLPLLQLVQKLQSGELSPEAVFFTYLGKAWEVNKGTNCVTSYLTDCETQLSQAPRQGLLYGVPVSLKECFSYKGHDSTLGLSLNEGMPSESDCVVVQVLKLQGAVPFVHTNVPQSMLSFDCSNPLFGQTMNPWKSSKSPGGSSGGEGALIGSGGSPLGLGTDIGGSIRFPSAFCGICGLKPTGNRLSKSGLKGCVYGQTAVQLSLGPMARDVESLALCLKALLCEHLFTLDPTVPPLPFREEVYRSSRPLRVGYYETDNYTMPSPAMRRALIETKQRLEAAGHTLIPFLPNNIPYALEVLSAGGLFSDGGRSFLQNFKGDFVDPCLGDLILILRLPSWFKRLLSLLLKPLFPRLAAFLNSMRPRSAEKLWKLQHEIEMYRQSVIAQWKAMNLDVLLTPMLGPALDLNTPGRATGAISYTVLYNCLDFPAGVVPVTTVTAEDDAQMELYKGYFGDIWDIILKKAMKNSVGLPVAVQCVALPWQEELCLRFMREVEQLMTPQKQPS

MAGL = target: T2, MAGL (Rattus norvegicus, UniProt Q8R431); test: MAGL activity in rat cerebellum cytosol; type: biochemical; conditions: for MAGL activity, percent of control / MAGL (100 μM), percent of control: C inhib=100 μM in rat cerebellum cytosol; for MAGL activity, percent of control: Table 2
T2 sequence (Q8R431 1-303): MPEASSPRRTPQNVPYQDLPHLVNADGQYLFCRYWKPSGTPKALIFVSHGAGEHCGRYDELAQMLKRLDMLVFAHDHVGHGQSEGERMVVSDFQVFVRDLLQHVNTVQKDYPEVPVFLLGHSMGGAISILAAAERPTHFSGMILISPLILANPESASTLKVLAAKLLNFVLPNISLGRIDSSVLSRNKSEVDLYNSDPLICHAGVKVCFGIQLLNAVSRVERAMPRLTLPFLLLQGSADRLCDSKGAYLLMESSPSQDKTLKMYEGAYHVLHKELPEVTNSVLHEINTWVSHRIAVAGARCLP

carboxylesterases (CEs) = test: CE activity in rat liver microsomes; type: biochemical; conditions: for CEs activity, percent of control: C inhib=10 μM in rat liver microsomes, Table 2; for CEs (10 μM), percent of control: 10 μM in rat liver microsomes
FAAH [2] = target: T3, FAAH (Mus musculus, UniProt O08914); test: In vivo FAAH inhibition, brain, after oral administration to mice
T3 sequence (O08914 1-579): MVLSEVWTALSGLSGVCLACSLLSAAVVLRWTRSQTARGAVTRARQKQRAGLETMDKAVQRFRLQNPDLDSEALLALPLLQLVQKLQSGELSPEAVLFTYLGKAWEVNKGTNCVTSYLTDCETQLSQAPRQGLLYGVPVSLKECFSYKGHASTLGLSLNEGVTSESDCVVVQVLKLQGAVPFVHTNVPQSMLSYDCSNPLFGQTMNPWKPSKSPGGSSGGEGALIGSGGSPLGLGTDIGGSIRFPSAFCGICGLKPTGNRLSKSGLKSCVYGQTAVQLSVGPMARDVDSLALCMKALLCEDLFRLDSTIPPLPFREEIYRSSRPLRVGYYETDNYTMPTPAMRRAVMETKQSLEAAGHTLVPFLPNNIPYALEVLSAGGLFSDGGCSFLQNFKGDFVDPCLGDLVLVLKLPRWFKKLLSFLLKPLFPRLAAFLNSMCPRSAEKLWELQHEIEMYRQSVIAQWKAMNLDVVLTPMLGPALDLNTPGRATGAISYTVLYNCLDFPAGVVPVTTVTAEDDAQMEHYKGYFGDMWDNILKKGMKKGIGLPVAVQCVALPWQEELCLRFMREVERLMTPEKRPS

FAAH [3] = target: T3, FAAH; test: In vivo FAAH inhibition, liver, after oral administration to mice
[4] = 30 mg kg^−1 p.o. in mice, 1 h after administration, Table 2
[5] = 0.1 mg kg^−1 p.o. in mice, 8 h after administration, Table 5
[6] = 0.1 mg kg^−1 p.o. in mice, 8 h after administration, Table 4
[7] = 30 mg kg^−1 p.o. in mice, 1 h after administration (footnote f), Table 5
[8] = 0.1 mg kg^−1 p.o., mice, post-dose

Row | SMILES | FAAH activity, percent of control, 10 nM (FAAH [1]; Table 2) | FAAH activity, percent of control, 100 nM (FAAH [1]; Table 2) | MAGL activity, percent of control (MAGL) | CEs activity, percent of control (carboxylesterases (CEs)) | Brain FAAH activity, percent of control (FAAH [2]; [4]) | Liver FAAH activity, percent of control (FAAH [3]; [4]) | further results
1 | O=C(N1CCN(c2ccccc2)CC1)n1nnc2ccccc21 [Compound 10 j] | 1±0% of control | 0±0% of control | 12±4% of control | 28±2% of control | 88±7% of control | 30±5% of control | –
2 | O=C(N1CCC(Cc2ccccc2)CC1)n1nnc2ccccc21 [Compound 10 h] | 0±0% of control | 0±0% of control | 7±5% of control | 24±2% of control | 8±1% of control | 6±1% of control | –
3 | CC1(C)COCN1C(=O)n1cnc(-c2ccccc2)c1 [Compound 8 f, (4,4‐Dimethyloxazolidin‐3‐yl)(4‐phenyl‐1H‐imidazol‐1‐yl)methanone] | – | – | – | – | – | – | FAAH activity, percent of control, 100 nM (FAAH [1]; Table 5): 94±10% of control; MAGL (100 μM), percent of control (MAGL; Table 5): 92±3% of control; CEs (10 μM), percent of control (carboxylesterases (CEs); Table 5): 95±6% of control; Brain FAAH activity, percent of control (FAAH [2]; [5]): 92±7% of control; Liver FAAH activity, percent of control (FAAH [3]; [5]): 53±6% of control
4 | CN(C(=O)n1nnc2ccccc21)C1CCCCC1 [Compound 10 k] | 1±0% of control | 1±2% of control | 73±3% of control | 30±1% of control | 0±0% of control | 1±0% of control | –
5 | O=C(Nc1ccc(F)cc1F)n1nnc2ccccc21 [Compound 10 d, N ‐(2,4‐Difluorophenyl)‐1H‐benzo[d][1,2,3]triazole‐1‐carboxamide] | – | 100±5% of control | – | – | – | – | –
6 | COc1cc(OC)cc(N(C)C(=O)n2nnc3ccccc32)c1 [Compound 10 c] | – | 76±0% of control | – | – | – | – | –
7 | CC1(C)COCN1C(=O)n1nnc2cccnc21 [Compound 11 e] | – | – | – | – | – | – | MAGL (100 μM), percent of control (MAGL; Table 4): 72±5% of control; CEs (10 μM), percent of control (carboxylesterases (CEs); Table 4): 61±11% of control; cerebral (brain) FAAH inhibition (FAAH [2]; 0.1 mg kg^−1, mouse, p.o., 8 h post-dose): over 85%; Brain FAAH activity, percent of control (FAAH [2]; [6]): 12±4% of control; Liver FAAH activity, percent of control (FAAH [3]; [6]): 14±7% of control; inhibition at 0.1 mg/kg (FAAH [3]; mouse, po, read-out: peripheral (liver) FAAH inhibition): > 85%
8 | O=C(N1CCCCCCC1)n1nnc2ccccc21 [Compound 10 m] | 62±6% of control | 15±1% of control | 58±6% of control | 30±2% of control | – | – | –
9 | CN(C(=O)n1nnc2ccccc21)c1ccccc1 [Compound 10 a] | 42±12% of control | 1±0% of control | 73±4% of control | 31±2% of control | 34±9% of control | 34±5% of control | IC50 (FAAH [1]): 7 nM; IC50 (MAGL): > 100000 nM; IC50 (carboxylesterases (CEs); read-out: CE IC50, rat liver microsomes): > 1000 nM
10 | CN(C(=O)n1cnc(-c2ccccc2)c1)c1ccccc1 [Compound 8 b, N ‐Methyl‐N,4‐diphenyl‐1H‐imidazole‐1‐carboxamide] | – | – | – | – | – | – | FAAH activity, percent of control, 100 nM (FAAH [1]; Table 5): 84±7% of control; CEs (10 μM), percent of control (carboxylesterases (CEs); Table 5): 105±5% of control; Brain FAAH activity, percent of control (FAAH [2]; [7]): 14±17^[f] Percent of control; Liver FAAH activity, percent of control (FAAH [3]; [7]): 11±5^[f] Percent of control
11 | O=C(Nc1cccnc1)N1CCC(Cc2cccc(Oc3ccc(C(F)(F)F)cn3)c2)CC1 [Compound 3, PF3845, reference compound] | 101±31% of control | 7±4% of control | 87±12% of control | 95±17% of control | 1±0% of control | 2±2% of control | MAGL (100 μM), percent of control (MAGL; Table 4): 87±12% of control; CEs (10 μM), percent of control (carboxylesterases (CEs); Table 4): 95±17% of control; Brain FAAH activity, percent of control (FAAH [2]; [6]): 5±1% of control; time of maximal inhibitory effect in the brain (t max) (FAAH [2]; [8]): 8 h; FAAH inhibition in the brain (FAAH [2]; 30 mg kg^−1 p.o., mice, 1 h post-administration): over 90%; Liver FAAH activity, percent of control (FAAH [3]; [6]): 7±4% of control; time of maximum inhibitory effect in the liver (FAAH [3]; [8]): 1 h; inhibition at 30 mg/kg (FAAH [3]; mouse, po, read-out: FAAH inhibition in the liver): > 90%
12 | C[C@@H]1CCC[C@H](C)N1C(=O)n1nnc2ccccc21 [Compound 10 n] | – | 71±7% of control | 35±5% of control | 28±1% of control | – | – | –
13 | CN(C(=O)n1cnc(-c2ccccc2)c1)C1CCCCC1 [Compound 8 j] | – | – | – | – | – | – | FAAH activity, percent of control, 100 nM (FAAH [1]; Table 5): 37±3% of control; MAGL (100 μM), percent of control (MAGL; Table 5): 91±3% of control; CEs (10 μM), percent of control (carboxylesterases (CEs); Table 5): 90±11% of control; Brain FAAH activity, percent of control (FAAH [2]; [5]): 86±5% of control; Liver FAAH activity, percent of control (FAAH [3]; [5]): 33±2% of control
14 | CC1(C)OCCN1C(=O)n1nnc2ccccc21 [Compound 10 o] | 71±2% of control | 17±3% of control | 84±25% of control | 60±7% of control | – | – | –
15 | O=C(N1CCN(Cc2ccccc2)CC1)n1cnc(-c2ccccc2)c1 [Compound 8 g] | – | – | – | – | – | – | FAAH activity, percent of control, 100 nM (FAAH [1]; Table 5): 1±0% of control; MAGL (100 μM), percent of control (MAGL; Table 5): 61±6% of control; CEs (10 μM), percent of control (carboxylesterases (CEs); Table 5): 52±2% of control
16 | CN(C(=O)n1cnc(-c2ccccc2)c1)C1CCOCC1 [Compound 8 i] | – | – | – | – | – | – | FAAH activity, percent of control, 100 nM (FAAH [1]; Table 5): 104±18% of control; MAGL (100 μM), percent of control (MAGL; Table 5): 96±1% of control; CEs (10 μM), percent of control (carboxylesterases (CEs); Table 5): 96±7% of control; Brain FAAH activity, percent of control (FAAH [2]; [5]): 38±18% of control; Liver FAAH activity, percent of control (FAAH [3]; [5]): 12±4% of control
17 | CN(C(=O)n1nnc2ccccc21)c1ccc(F)cc1F [Compound 10 b, N ‐(2,4‐Difluorophenyl)‐N‐methyl‐1H‐benzo[d][1,2,3]triazole‐1‐carboxamide] | 35±3% of control | 2±1% of control | 70±6% of control | 40±1% of control | – | – | –
18 | CN(C(=O)n1ccnc1)c1ccccc1 [Compound 8 a, N ‐Methyl‐N‐phenyl‐1H‐imidazole‐1‐carboxamide] | – | – | – | – | – | – | inhibition at 10 µM (FAAH [1]; read-out: FAAH inhibition): 88%
19 | Cl.O=C(N1CCN(Cc2ccccc2)CC1)n1nnc2ccccc21 [Compound 10 i] | 0±0% of control | 0±0% of control | 7±4% of control | 27±1% of control | 20±5% of control | 15±4% of control | –
20 | CN(Cc1ccccc1)C(=O)n1nnc2ccccc21 [Compound 10 f] | 0±0% of control | 0±0% of control | 2±2% of control | 24±1% of control | 1±0% of control | 6±2% of control | –

Reference: PMC6582431 (Chemmedchem, 2018)
